Source: PubChem BioAssay AID256 (DTP/NCI, 2004)
Where “and” joins values, the source holds several entries; their conditions need not be identical. Identical values can stand only once. Inconclusive results and toxic doses are left out. Rule for the calls: active = survival T/C of 150% or more; inactive = T/C below 125% in these data.

Test system: CD2F1 mice, L1210 leukemia ip, survival T/C
Test: NCI In Vivo Anticancer Drug Screen. Data for tumor model L1210 Leukemia (intraperitoneal) in CD2F1 (CDF1) mice
Settings: higher = longer survival
How it was run: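 Vehicle-treated tumor-bearing mice served as controls (C) for compound-treated mice (T). Reported figure is T divided by C.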

[1] = endpoint: mean survival time, dose: 75.0 mg/kg/injection, schedule: Q01DX001 (ip), vehicle: saline
[2] = endpoint: mean survival time, dose: 150.0 mg/kg/injection, schedule: Q01DX001 (ip), vehicle: saline
[3] = endpoint: mean survival time, dose: 100.0 mg/kg/injection, schedule: Q04DX003 (ip), vehicle: saline with Tween-80
[4] = endpoint: mean survival time, dose: 400.0 mg/kg/injection, schedule: Q04DX003 (ip), vehicle: saline with Tween-80
[5] = endpoint: mean survival time, dose: 100.0 mg/kg/injection, schedule: Q01DX001 (ip), vehicle: saline with Tween-80
[6] = endpoint: mean survival time, dose: 200.0 mg/kg/injection, schedule: Q01DX001 (ip), vehicle: saline with Tween-80
[7] = endpoint: mean survival time, dose: 100.0 mg/kg/injection, schedule: Q01DX009 (ip), vehicle: saline
[8] = endpoint: mean survival time, dose: 100.0 mg/kg/injection, schedule: Q04DX003 (ip), vehicle: saline
[9] = endpoint: mean survival time, dose: 200.0 mg/kg/injection, schedule: Q01DX009 (ip), vehicle: saline
[10] = endpoint: mean survival time, dose: 200.0 mg/kg/injection, schedule: Q04DX003 (ip), vehicle: saline
[11] = endpoint: mean survival time, dose: 400.0 mg/kg/injection, schedule: Q01DX009 (ip), vehicle: saline
[12] = endpoint: mean survival time, dose: 400.0 mg/kg/injection, schedule: Q04DX003 (ip), vehicle: saline
[13] = endpoint: mean survival time, dose: 100.0 mg/kg/injection, schedule: Q01DX009 (ip), vehicle: saline with Tween-80
[14] = endpoint: mean survival time, dose: 200.0 mg/kg/injection, schedule: Q01DX009 (ip), vehicle: saline with Tween-80
[15] = endpoint: mean survival time, dose: 200.0 mg/kg/injection, schedule: Q04DX003 (ip), vehicle: saline with Tween-80

Measured: T/C

CCCCCCCCCC(=O)N(C)C
inactive: [1] 98 % of control | [2] 104 % of control

O=C(Nc1ccc(F)cc1)c1ccc(C(=O)Nc2ccc(F)cc2)cc1
inactive: [3] 100 % of control | [4] 94 % of control

Nc1nc2c(ncn2-c2ccc(OCCNC(=O)Nc3ccc(S(=O)(=O)F)cc3)cc2)c(=O)[nH]1
inactive: [5] 95 % of control | [6] 94 % of control | endpoint: mean survival time, dose: 400.0 mg/kg/injection, schedule: Q01DX001 (ip), vehicle: saline with Tween-80 94 % of control

Cc1cc(Br)cc(Br)c1OCC(=O)O
inactive: endpoint: mean survival time, dose: 50.0 mg/kg/injection, schedule: Q01DX009 (ip), vehicle: Klucel (hydroxypropylcellulose) (HPC) 96 % of control | endpoint: mean survival time, dose: 100.0 mg/kg/injection, schedule: Q01DX009 (ip), vehicle: Klucel (hydroxypropylcellulose) (HPC) 93 % of control | endpoint: mean survival time, dose: 200.0 mg/kg/injection, schedule: Q01DX009 (ip), vehicle: Klucel (hydroxypropylcellulose) (HPC) 96 % of control

NC(N)=NCCCCC(N)C(=O)O (centres undefined)
inactive: endpoint: mean survival time, dose: 100.0 mg/kg/injection, schedule: Q01DX009 (ip), vehicle: acetone 101 % of control | [7] 95 % of control | [8] 97 % of control | endpoint: mean survival time, dose: 200.0 mg/kg/injection, schedule: Q01DX009 (ip), vehicle: acetone 96 % of control | [9] 95 % of control | [10] 100 % of control | endpoint: mean survival time, dose: 400.0 mg/kg/injection, schedule: Q01DX009 (ip), vehicle: acetone 98 % of control | [11] 95 % of control | [12] 103 % of control

O=C(O)C1=CCCc2ccc(Br)cc21
inactive: endpoint: median survival time, dose: 25.0 mg/kg/injection, schedule: Q04DX003 (ip), vehicle: saline with Tween-80 100 % of control | endpoint: median survival time, dose: 50.0 mg/kg/injection, schedule: Q04DX003 (ip), vehicle: saline with Tween-80 100 % of control | endpoint: median survival time, dose: 100.0 mg/kg/injection, schedule: Q04DX003 (ip), vehicle: saline with Tween-80 88 % of control | endpoint: median survival time, dose: 200.0 mg/kg/injection, schedule: Q04DX003 (ip), vehicle: saline with Tween-80 88 % of control

CCS(=O)(=O)/C=C(\C#Cc1ccccc1)c1ccccc1
inactive: endpoint: mean survival time, dose: 50.0 mg/kg/injection, schedule: Q01DX009 (ip), vehicle: saline 90 % of control | [7] 91 % of control | [8] 102 % of control | [9] 91 % of control | [10] 102 % of control | [12] 98 % of control

O=C1OC(c2ccccc2)(c2ccccc2)c2cccc3cccc1c23
inactive: [3] 93 % of control | [4] 86 % of control

O/N=C/c1ccccc1O.O/N=C/c1ccccc1O.[Cu]
inactive: endpoint: mean survival time, dose: 1.56 mg/kg/injection, schedule: Q01DX009 (ip), vehicle: saline with Tween-80 98 % of control and 103 % of control | endpoint: mean survival time, dose: 3.12 mg/kg/injection, schedule: Q01DX009 (ip), vehicle: saline with Tween-80 102 % of control and 106 % of control | endpoint: mean survival time, dose: 6.25 mg/kg/injection, schedule: Q01DX009 (ip), vehicle: saline with Tween-80 93 % of control and 101 % of control | endpoint: mean survival time, dose: 12.5 mg/kg/injection, schedule: Q01DX009 (ip), vehicle: saline with Tween-80 100 % of control and 108 % of control | endpoint: mean survival time, dose: 25.0 mg/kg/injection, schedule: Q01DX009 (ip), vehicle: saline with Tween-80 114 % of control and 100 % of control

CCN(CC)CCCNc1cc(OC)cc2nc3cc(Cl)ccc3nc12
inactive: endpoint: mean survival time, dose: 12.5 mg/kg/injection, schedule: Q01DX009 (ip), vehicle: suspension in saline 98 % of control | endpoint: mean survival time, dose: 25.0 mg/kg/injection, schedule: Q01DX009 (ip), vehicle: suspension in saline 100 % of control and 101 % of control | endpoint: mean survival time, dose: 50.0 mg/kg/injection, schedule: Q01DX009 (ip), vehicle: suspension in saline 98 % of control and 105 % of control | endpoint: mean survival time, dose: 100.0 mg/kg/injection, schedule: Q01DX009 (ip), vehicle: suspension in saline 101 % of control and 108 % of control | endpoint: mean survival time, dose: 200.0 mg/kg/injection, schedule: Q01DX009 (ip), vehicle: suspension in saline 112 % of control

O=C(O)c1cccnc1[N+](=O)[O-]
inactive: endpoint: mean survival time, dose: 50.0 mg/kg/injection, schedule: Q01DX009 (ip), vehicle: saline with Tween-80 98 % of control | [5] 93 % of control | [13] 94 % of control | [6] 93 % of control | [14] 96 % of control

CC(C)(C)OC(=O)NCCCC(=O)O
inactive: [3] 93 % of control | [15] 90 % of control

C=C(C)C12CC(COC(=O)c3ccccc3)C34OC5(OC1C3C1OC1(COC(=O)CCCCCCCCCCCCCCC)C(O)C1(O)C(OC(=O)c3ccccc3)C(C)C(C(C)CCCCCCC5O)C14)O2 (centres undefined)
inactive: endpoint: mean survival time, dose: 6.3 micrograms/kg/injection, schedule: Q01DX009 (ip), vehicle: saline 107 % of control | endpoint: mean survival time, dose: 12.5 micrograms/kg/injection, schedule: Q01DX009 (ip), vehicle: saline 103 % of control | endpoint: mean survival time, dose: 25.0 micrograms/kg/injection, schedule: Q01DX009 (ip), vehicle: saline 102 % of control | endpoint: mean survival time, dose: 50.0 micrograms/kg/injection, schedule: Q01DX009 (ip), vehicle: saline 105 % of control

CCOC(=O)N1C2c3ccccc3C(c3ccccc32)N1C(=O)OCC
inactive: [13] 94 % of control | [3] 95 % of control | [14] 89 % of control | [15] 98 % of control | [4] 93 % of control

Cn1c(=O)c2c(ncn2CCNCC(O)c2cc(C(C)(C)C)c(O)c(C(C)(C)C)c2)n(C)c1=O (centres undefined)
inactive: endpoint: mean survival time, dose: 12.5 mg/kg/injection, schedule: Q01DX005 (ip), vehicle: distilled water + Tween-80 100 % of control | endpoint: mean survival time, dose: 25.0 mg/kg/injection, schedule: Q01DX005 (ip), vehicle: distilled water + Tween-80 100 % of control | endpoint: mean survival time, dose: 50.0 mg/kg/injection, schedule: Q01DX005 (ip), vehicle: distilled water + Tween-80 106 % of control | endpoint: mean survival time, dose: 100.0 mg/kg/injection, schedule: Q01DX005 (ip), vehicle: distilled water + Tween-80 109 % of control | endpoint: mean survival time, dose: 200.0 mg/kg/injection, schedule: Q01DX005 (ip), vehicle: distilled water + Tween-80 101 % of control

CCOc1ccc(/C=C/C(=O)c2ccc(C)cc2)cc1OCC
inactive: endpoint: mean survival time, dose: 37.5 mg/kg/injection, schedule: Q01DX009 (ip), vehicle: saline 98 % of control | endpoint: mean survival time, dose: 75.0 mg/kg/injection, schedule: Q01DX009 (ip), vehicle: saline 98 % of control | endpoint: mean survival time, dose: 150.0 mg/kg/injection, schedule: Q01DX009 (ip), vehicle: saline 113 % of control

CC(N)C(=O)NC(CO)C(=O)O (centres undefined)
inactive: [7] 103 % of control | [8] 97 % of control | [9] 95 % of control | [10] 93 % of control | [11] 97 % of control | [12] 93 % of control

CC1c2ccccc2CC2(C)CN12 (centres undefined)
inactive: [1] 103 % of control | [2] 101 % of control | endpoint: mean survival time, dose: 300.0 mg/kg/injection, schedule: Q01DX001 (ip), vehicle: saline 97 % of control
